Experimental data published in patent publication EP1733731A1, “New uses of Glycerol derivatives in particular in cosmetics” (AGRO INDUSTRIE RECHERCHES ET DEVELOPPEMENTS (A.R.D.), priority 2005, dated 2006).

How the values were obtained:
[1] = biological target: T1, plasmine humaine (Homo sapiens, UniProt P00747); test: amidolytic activity of plasmin on synthetic substrate S-2251; assay type: biochemical
T1 construct: connus pour interagir avec la plasmine via son domaine kringle V; testé in vitro sur l'activité amidolytique de la plasmine à l'aide d'un substrat synthétique (S-2251, Chromogénix)
Experimental: L'effet de ces différentes fractions et produits purs a donc été testé in vitro sur l'activité amidolytique de la plasmine à l'aide d'un substrat synthétique (S-2251, Chromogénix).
Les fractions ou composés purs issus de l'extraction sont solubilisés avant utilisation dans du diméthylsulfoxyde (DMSO) à une concentration de stockage de 20 mg/mL. La conservation est effectuée à -80°C. 12 nM de plasmine humaine sont pré-incubés en absence et en présence de concentrations croissantes (0 à 200 µg/mL) des différentes fractions et produits dans un tampon Tris-HCl 100 mM pH 7,5. La réaction est déclenchée par addition de 0,3 mM de S-2251. L'hydrolyse du S-2251 est suivie par mesure de l'absorbance du para-nitroaniline à 405 nm. La courbe représentant les variations d'absorbance en fonction du temps est tracée et la vitesse initiale de la réaction est déterminée par calcul de la pente de la tangente à l'origine. Le rapport Vi/Vo est calculé, où Vo représente la vitesse initiale en absence d'effecteur et Vi cette vitesse en présence d'un effecteur, et la courbe Vi/Vo en fonction de la concentration en en glycolipides est tracée.

[2] = tested on: proMMP-3; test: activation of proMMP-3 by plasmin in cultured dermal fibroblasts (western blot); assay type: cell-based; conditions: 25 µg/mL; 2,5 µg/mL plasmin; Figure 1B-4
Experimental: (§1) • La Figure 1 représente la modulation de l'activation des proMMP-3 (Figures 1A et 1B) et proMMP-1 (Figure 1C) in vitro comme en culture par des extraits glycolipidiques du gluten de blé. • Figure 1A : 100 nM de proMMP-3 (Figure 1A-1) sont incubés avec 65 nM de plasmine en absence (Figure 1A-2) ou en présence de glycolipides (Figure 1A-3 et 4), à la concentration de 50µg/mL pour M1-Sucres (Figure 1A-3) et 25 µg/mL pour ED 23-11 (Figure 1A-4). • Figure 1B : des fibroblastes dermiques sont ensemencés en plaque 24 puits à raison de […] cellules par puits jusque confluence. Après une mise au repos de 18 heures, les cellules sont incubées en présence (Figure 1B-2, 3 et 4) ou non (Figure 1B-1) de 2,5 µg/mL de plasmine ainsi que des glycolipides M1(-Sucres) (Figure 1B-3) et ED 23-11 (Figure 1B-4) aux mêmes concentrations que précédemment. • Figure 1C : des fibroblastes dermiques sont ensemencés en plaque 24 puits à raison de […] cellules par puits jusque confluence. Après une mise au repos de 18 heures, les cellules sont incubées en présence (Figure 1C-2, 3 et 4) ou non (Figure 1C-1) de 2,5 µg/mL de plasmine ainsi que des glycolipides M1(-Sucres) (Figure 1C-3) et ED 23-11 (Figure 1C-4) aux mêmes concentrations que précédemment. Dans l'ensemble des figures 1A, 1B et 1C, la réaction est arrêtée aux temps indiqués par addition de 0,3 mg/ml d'aprotinine. […]

[3] = tested on: proMMP-1; test: activation of proMMP-1 by plasmin in cultured dermal fibroblasts (western blot); assay type: cell-based; conditions: 25 µg/mL; 2,5 µg/mL plasmin; Figure 1C-4
Experimental: as §1

[4] = tested on: TIMP-1; test: TIMP-1 secretion by dermal fibroblasts (reverse zymography); assay type: cell-based
Description: Les effets de ces composés et fractions ont été étudiés sur la sécrétion de TIMP-1 par des fibroblastes dermiques en culture. L'analyse de la quantité de TIMP-1 produite est effectuée par une technique de zymographie inverse (Biotechniques. 2005 Jan;38(1):73-83. Zymographic techniques for the analysis of matrix metalloproteinases and their inhibitors. Snoek-van Beurden PA, Von den Hoff JW). Les résultats présentés sont exprimés en pourcentage par rapport au témoin sans effecteur.

T1 sequence (P00747 97-580 limits assumed): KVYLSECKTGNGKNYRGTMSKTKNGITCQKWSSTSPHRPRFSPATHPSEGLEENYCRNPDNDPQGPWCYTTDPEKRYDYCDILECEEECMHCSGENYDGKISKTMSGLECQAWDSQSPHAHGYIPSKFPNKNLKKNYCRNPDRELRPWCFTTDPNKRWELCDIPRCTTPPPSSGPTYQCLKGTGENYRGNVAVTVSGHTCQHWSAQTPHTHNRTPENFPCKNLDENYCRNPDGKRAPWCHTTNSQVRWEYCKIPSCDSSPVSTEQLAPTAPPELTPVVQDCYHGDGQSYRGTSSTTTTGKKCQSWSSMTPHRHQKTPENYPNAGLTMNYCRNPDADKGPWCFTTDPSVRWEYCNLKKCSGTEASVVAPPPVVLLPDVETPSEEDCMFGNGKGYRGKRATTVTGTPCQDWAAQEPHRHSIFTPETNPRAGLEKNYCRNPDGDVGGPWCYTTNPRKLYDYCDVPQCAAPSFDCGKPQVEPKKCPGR
T1 sequence (P00747 581-810 limits assumed): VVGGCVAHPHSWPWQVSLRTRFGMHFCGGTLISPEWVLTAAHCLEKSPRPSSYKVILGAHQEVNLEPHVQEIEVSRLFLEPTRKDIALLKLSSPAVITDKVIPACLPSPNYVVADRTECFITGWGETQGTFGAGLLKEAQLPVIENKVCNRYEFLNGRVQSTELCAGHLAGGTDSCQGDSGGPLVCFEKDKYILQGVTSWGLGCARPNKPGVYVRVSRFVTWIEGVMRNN

**Q.** What does the source list for `CCCCC/C=C\C/C=C\CCCCCCCCOC[C@H](CO[C@@H]1O[C@H](COC(=O)CCCCCCCCCCCCCCC)[C@H](O)[C@H](O)[C@H]1O)OCCCCCCCC/C=C\C/C=C\CCCCC` [ED23-11, 1,2-di-O-linoléyl-3-O-[6'-O-palmitoyl-β-D-galactopyranosyl]-sn-glycérol]?
**A.** Plasmine (Vi/Vo) ([1]; 25 µg/mL, 12 nM plasmin, 0,3 mM S-2251): 2,11 ± 0,16; Action sur l'activité de la plasmme (Vi/V0) à isoconcentration ([1]; at isoconcentration): 8,44; Augmentation d'activité ([1]; plasmin amidolytic activity, increase from one fractionation step to the next): 2,36; activation de la proMMP-3 [2]: inhibition significative; activation de la proMMP-1 [3]: inhibition significative; sécrétion de TIMP-1, pourcentage par rapport au témoin sans effecteur ([4]; 5 ng/mL): 102%; sécrétion de TIMP-1, pourcentage par rapport au témoin sans effecteur ([4]; 25 ng/mL): 104%; sécrétion de TIMP-1, pourcentage par rapport au témoin sans effecteur ([4]; 50 ng/mL): 98%; sécrétion de TIMP-1, pourcentage par rapport au témoin sans effecteur ([4]; 100 ng/mL): 101%; sécrétion de TIMP-1, pourcentage par rapport au témoin sans effecteur ([4]; 200 ng/mL): 106%; surexpression du TIMP-1 ([4]; over the tested concentration range, result in words): pas
